# Target: T1, ctdWDR91 (Homo sapiens, UniProt A4D1P6)
# T1 sequence (A4D1P6 392-747): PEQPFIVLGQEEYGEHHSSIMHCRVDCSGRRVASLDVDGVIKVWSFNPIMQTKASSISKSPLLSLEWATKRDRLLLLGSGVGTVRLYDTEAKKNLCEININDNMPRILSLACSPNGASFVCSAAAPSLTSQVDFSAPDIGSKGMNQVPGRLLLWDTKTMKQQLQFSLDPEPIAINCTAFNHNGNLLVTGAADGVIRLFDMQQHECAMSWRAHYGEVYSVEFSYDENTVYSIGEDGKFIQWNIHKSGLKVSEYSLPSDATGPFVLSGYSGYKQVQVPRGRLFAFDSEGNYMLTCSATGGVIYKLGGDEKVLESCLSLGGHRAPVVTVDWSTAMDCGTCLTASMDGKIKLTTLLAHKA
# Experiment: biochemical
row,SMILES,Kd [µM]
1,CC1CCN(c2ccc(C(=O)N3c4ccccc4CC3CO)cc2)C1 (stereo not shown) [MRGG044805a],> 45
2,O=C(NCc1ccc2nonc2c1)c1cn2ccsc2n1 [MRGG044782a],> 45
3,CC1c2cccn2CCN1C(=O)c1cc(Br)cc(N2CCCC2)c1 (stereo not shown) [MRGG044826a],> 45
4,C[C@H]1C(=O)N(CCN2CCc3ccccc32)C(=O)N1C [MRGG045307a],> 45
5,O=C(NC(CCO)c1ccc(Cl)c(Cl)c1)c1ccc2c(c1)NC(=O)C1CCCN21 (stereo not shown) [MRGG045335a],> 45
6,CNC(=O)[C@@H](NC(=O)c1ccc2[nH]ccc2n1)C(C)C [MRGG044793a],> 45
7,CN(Cc1ccc(-c2ccc(Cl)cc2)o1)C(=O)CN1C(=O)c2cccnc2C1=O [MRGG045274a],> 45
8,CC(=O)N1CCCC(C(=O)N(C)CCc2ccc(F)cc2)C1 (stereo not shown) [MRGG044837a],> 45
9,O=C(NCCc1ccc(O)c(O)c1)Nc1cccc(N2CCNC2=O)c1 [MRGG044825a],> 45
10,CNC(=O)c1cccnc1N1C[C@@H]2CN(C)C[C@]2(C)C1 [MRGG045301a],> 45
11,CN(C)c1nc2ccc(NCc3cc4c(cc3O)OCO4)cc2o1 [MRGG044799a],> 45
12,CC1CN(C2CC2)CC1NC(=O)CCCCc1c[nH]c2ccccc12 (stereo not shown) [MRGG045292a],> 45
13,CC1CC(NC(=O)c2c[nH]c3cccc(Cl)c23)CN1C1CC1 (stereo not shown) [MRGG045323a],> 45
14,CN(C(=O)c1c(C2CC2)nc2sccn12)C1CCN(C2CC2)C1 (stereo not shown) [MRGG045293a],> 45
15,O=c1c2c(F)cccc2ncn1CC1CCN(C2CC2)C1 (stereo not shown) [MRGG044781a],> 45
16,CC1CN(C2CC2)CC1NC(=O)c1cc2cc(Br)ccc2o1 (stereo not shown) [MRGG044827a],> 45
17,CN(CC1CCN(Cc2ccccc2)C1)C(=O)Cc1cccc(O)c1 (stereo not shown) [MRGG044819a],> 45
18,COC(=O)c1ccccc1NC(=O)c1ccc2nnsc2c1 [MRGG044841a],> 45
19,CNC(=O)c1ccc(NC2CC3CCC(C2)N3C)nc1 (stereo not shown) [MRGG045318a],> 45
20,Cc1c(C#N)c2ccccc2n1CC(=O)N1CCc2ccccc2C1 [MRGG044779a],> 45
21,COc1ccc(C(NC(=O)C2CC(C)=NO2)c2ccc(Cl)cc2)cc1 (stereo not shown) [MRGG045275a],> 45
22,COC(=O)c1cccc(-c2cccc(NC3CCN(C4CC4)C3)c2)c1 (stereo not shown) [MRGG045314a],> 45
23,Cc1cc(N2CCC(COC(=O)C3COc4ccccc43)C2)ccc1F (stereo not shown) [MRGG045298a],> 45

row,SMILES,Kd [µM]
1,Cc1ccccc1CN1CC(=O)N(CC2CCN(c3ccc(F)cc3)C2)C1=O (stereo not shown) [MRGG045291a],> 45
2,O=C(NC1CCN(c2cccc(Cl)c2)C1)c1cccc2c1OCO2 (stereo not shown) [MRGG044807a],> 45
3,CC1CN(C2CC2)CC1NS(=O)(=O)c1cnn(-c2ccccc2)c1 (stereo not shown) [MRGG044803a],> 45
4,CC1CN(C2CC2)CC1NC1CCN(C2CC2)CC1 (stereo not shown) [MRGG045338a],> 45
5,Cn1ccc(C(=O)Nc2ccc(N3CCCCC3)c3ccncc23)cc1=O [MRGG044838a],> 45
6,Cc1ccc(C(=O)NC2CC2)cc1NCc1cc(C#N)cc(C#N)c1 [MRGG045299a],> 45
7,O=C(CCN1C[C@@H]2C[C@H]1CN2C1CC1)NCc1ccccc1Cl [MRGG045281a],> 45
8,CC(NC(=O)c1ccc2c(=O)n3c(nc2c1)CCC3)c1ccc(Cl)cc1 (stereo not shown) [MRGG044821a],> 45
9,N#Cc1cn(CC2CCN(c3ccccc3)C2)c(=O)[nH]c1=O (stereo not shown) [MRGG044810a],> 45
10,COc1ccnc(N(C)C(=O)CCn2cccc2)n1 [MRGG045324a],> 45
11,Cc1ccc(C(=O)NC(c2ccc(Cl)cc2)C2CC2)cc1[N+](=O)[O-] (stereo not shown) [MRGG044833a],> 45
12,Cc1nc2sccn2c1C(=O)N(C)Cc1cccc(F)c1 [UBGG013392b],> 45
13,CN1CCC2(CCCN(C(=O)c3cccnc3C(N)=O)C2)C1 (stereo not shown) [MRGG045271a],> 45
14,COc1cc(C)nc(NC(=O)c2ccoc2C2CC2)n1 [MRGG044772b],> 45
15,CN(C)C1(CNC(=O)c2ccc3oc(=O)[nH]c3c2)Cc2ccccc2C1 [MRGG044797a],> 45
16,O=C(NC(CCO)c1ccc(Cl)cc1)c1ccc(CN2CCCC2=O)cc1 (stereo not shown) [MRGG045272a],> 45
17,O=C(NC1CC2(CCCC2)Oc2ccccc21)c1cnc2ccccn2c1=O (stereo not shown) [MRGG044783a],> 45
18,N#Cc1ccc2c(c1)CCCCC2NCC1CCN(C2CC2)C1 (stereo not shown) [MRGG045300a],> 45
19,O=C(NCc1ccc2c(c1)OCO2)c1ccc2snnc2c1 [MRGG044780a],17
20,CCC(NC(=O)c1ccc(S(=O)(=O)NC2CC2)cc1)c1ccc(Br)cc1 (stereo not shown) [MRGG044824a],> 45
21,O=[N+]([O-])c1ccc(N2CCC(CNc3ccccn3)C2)c2ccncc12 (stereo not shown) [MRGG044831a],> 45
22,CC1(C)CN(C(=O)c2snc(O)c2Cl)c2ccc(Cl)cc21 [MRGG045317a],> 45
23,c1nc(NC2CCN(C3CC3)C2)c2ccsc2n1 (stereo not shown) [MRGG044830a],> 45

row,SMILES,Kd [µM]
1,N#Cc1cc(C(F)(F)F)cc(N2CCCN(C3CC3)CC2)n1 [MRGG045289a],> 45
2,CN(Cc1ccccc1OCc1ccccc1F)C1CCN(C2CC2)C1 (stereo not shown) [MRGG045303a],> 45
3,CN1C(=O)CC(C(=O)NCc2ccc(O)c(O)c2)C1c1ccc(Cl)c(Cl)c1 (stereo not shown) [MRGG045316a],> 45
4,NC(=O)NC(CC(=O)Nc1ccc(N2CCCC2)cc1)c1ccc(Cl)cc1 (stereo not shown) [XSGG048242e],> 45
5,CC(C)(C)OC(=O)N1C[C@@H](Cc2ccccc2)[C@H](O)C1 [MRGG044809a],> 45
6,N#Cc1ccc(NCc2cc(Cl)cc(C(F)(F)F)c2)cn1 [MRGG044806a],> 45
7,NC(=O)C1=NOC(CNC(=O)NCC2CCN(c3ccccc3)C2)C1 (stereo not shown) [MRGG044840a],> 45
8,CN1CC(N(C)C(=O)CCc2ccc3cc(O)c(O)cc3c2)C1 [MRGG045336a],> 45
9,CC(NC(=O)c1ccc(CNC(N)=O)cc1)c1ccc(Cl)c(Cl)c1 (stereo not shown) [MRGG044836a],> 45
10,Cc1cccc(C#CCN2C[C@@H]3C[C@H]2CN3C2CC2)c1 [MRGG045294a],> 45
11,N#Cc1cc(CNc2ccccc2CN2CCNC2=O)ccc1F [MRGG044804a],> 45
12,Cc1cc(O)c(O)cc1C(=O)N[C@H]1CC(=O)N(C)[C@@H]1c1ccc(Cl)cc1 [MRGG045330a],> 45
13,O=c1[nH]nc2n1CCN(Cc1ccccc1CN1CCn3c(n[nH]c3=O)C1)C2 [MRGG045331a],> 45
14,O=C(CSc1nnc(-c2ccc(Cl)cc2)o1)NCc1ccc(O)c(O)c1 [MRGG045283a],> 45
15,N#Cc1cc(Br)cc(N2CCCC2)c1 [MRGG044812a],> 45
16,CN(C)C(=O)CC1CCN(C(=O)c2cc3cc(O)c(O)cc3s2)CC1 [MRGG045286a],> 45
17,NC(=O)[C@]12CCOC[C@H]1CN(C(=O)c1cccc(N3CCCC3)c1)C2 [MRGG044792a],> 45
18,c1ccc2oc(-c3n[nH]cc3CNCC3CCN(C4CC4)C3)cc2c1 (stereo not shown) [MRGG044801a],> 45
19,CN(C1CCN(C2CC2)C1)S(=O)(=O)c1cccc2ccoc12 (stereo not shown) [MRGG045312a],> 45
20,O=C(Nc1ccc2oc(=O)ccc2c1)c1cc(F)c(F)cc1[N+](=O)[O-] [MRGG044828a],> 45
21,CC(NC(=O)CCNC(=O)c1ccc(Br)cc1)c1ccc(Cl)cc1 (stereo not shown) [XSGG051538e],> 45
22,COc1ccc(C(NC(=O)CN2CCn3ncnc3C2)c2ccc(OC)cc2)cc1 [MRGG044794a],> 45
23,Fc1ccc(N2CCC(CNc3ncnc4ccncc34)C2)cc1F (stereo not shown) [MRGG044795a],> 45

row,SMILES,Kd [µM]
1,CC(C)(C)OC(=O)N1CCC2(CC(N)c3ccccc3O2)C1 (stereo not shown) [MRGG044817a],> 45
2,NC(=O)C1(NC(=O)c2ccc3cccnc3c2)Cc2ccccc2C1 [MRGG045265a],> 45
3,O=C(NCc1ccc2cnccc2c1)c1snc(O)c1Cl [MRGG045296a],> 45
4,c1ccc(-n2ncc3c(NCC4CCN(C5CC5)C4)ncnc32)cc1 (stereo not shown) [MRGG045311a],> 45
5,CC(NC(=O)C1Cc2ccccc2O1)c1cccc(N2CCCC2)c1 (stereo not shown) [MRGG044823a],> 45
6,Cc1ccccc1N1CCC(CNC(=O)Cc2ccc(C(F)(F)F)cc2)C1 (stereo not shown) [MRGG044786a],> 45
7,O=[N+]([O-])c1ccc(N2CCCC2)cc1NCc1ccc(Cl)cc1 [MRGG044778a],> 45
8,CN(CCc1ccccc1)C(=O)c1nc2sccn2c1CN1CC[C@H](O)C1 [MRGG044785a],> 45
9,COc1cccc2c1OCCCN(C(=O)c1cn3ccsc3n1)C2 [MRGG044787a],> 45
10,C[C@@H]1CN(S(=O)(=O)c2ccc3ncsc3c2)[C@@H](C)CN1C [MRGG045304a],> 45
11,C[C@H](NC1CCN(C2CC2)C1)c1cccc2cnccc12 (stereo partly shown) [MRGG045313a],> 45
12,O=C(NC(CO)c1ccc(Cl)cc1)c1cccc2cn[nH]c12 (stereo not shown) [MRGG044832a],> 45
13,CN(C(=O)Cc1coc2ccccc12)C1CCN(C(=O)OC(C)(C)C)C1 (stereo not shown) [MRGG045302a],> 45
14,CN(Cc1ccc(Cl)c(Cl)c1)C(=O)COC(=O)C=Cc1ccc(O)c(O)c1 [MRGG045262a],> 45
15,Cc1ccc(C(=O)N(C)C)cc1-c1cccc(N2CCCC2)c1 [MRGG045315a],> 45
16,COC(=O)c1ccc(C(=O)N2C3CCC2CN(C)C3)cn1 [MRGG045263a],> 45
17,COCC1CCN(c2ccc(C(=O)N3C[C@@H]4C[C@H]3CN4C3CC3)cc2)C1 (stereo partly shown) [MRGG045264a],> 45
18,CN(Cc1ccccc1-n1cccc1)C(=O)C1CCCN1C1CC1 (stereo not shown) [MRGG045309a],> 45
19,Cc1c(C(=O)NCc2n[nH]c(N)n2)n(C)c2ccc(F)cc12 [MRGG044784a],> 45
20,Cc1cc(O)c(O)cc1C(=O)NC1(c2cccc(C#N)c2)CCC1 [MRGG045322a],> 45
21,OC1CN(C2CC2)CC1N1CCc2ccccc2C1 (stereo not shown) [MRGG045310a],> 45
22,Cc1ccc(CN2CCC(CN(C)C3CC3)C2)s1 (stereo not shown) [MRGG045327a],> 45
